In ChEMBL document CHEMBL1124315, “N- and 2-substituted N-(phenylsulfonyl)glycines as inhibitors of rat lens aldose reductase” (J Med Chem, 1989) one finds IC50 data, which are given here for 59 molecules.

The term IC50 denotes the concentration that gives 50% inhibition. Read a low IC50 as greater potency.

The experiment has as its target Aldo-keto reductase family 1 member B1 (Rattus norvegicus, UniProt P07943). Description: Inhibitory concentration against aldose reductase obtained from rat lens.

`COc1ccc(S(=O)(=O)NCC(=O)O)cc1` had an IC50 of 31 µM. To `O=C(O)c1ccccc1NS(=O)(=O)c1ccc(Cl)cc1` belongs 130 µM; to `Cc1ccc(S(=O)(=O)N[C@H](C(=O)O)c2ccccc2)cc1`, 8.9 µM. To `Cc1ccc(S(=O)(=O)N[C@@H](C(=O)O)c2ccccc2)cc1` belongs 90 µM; to `O=C(O)CN(c1ccccc1)S(=O)(=O)c1ccc(F)cc1`, 26 µM.

With `O=C(O)c1ccccc1NS(=O)(=O)c1ccccc1`, 65 µM corresponded to half-maximal inhibition (IC50). Then `Nc1ccc(S(=O)(=O)Nc2ccccc2C(=O)O)cc1`, with 7.9 µM; and `O=C(O)[C@@H](NS(=O)(=O)c1ccc(Cl)cc1)c1ccccc1`, with 7.1 µM; and `O=C(O)CN(c1ccccc1)S(=O)(=O)c1ccccc1[N+](=O)[O-]`, with 3.6 µM.

The molecule `Cc1ccc(S(=O)(=O)NCC(=O)O)cc1` registered an IC50 of 32 µM. Then `O=C(O)[C@H](NS(=O)(=O)c1ccc(F)cc1)c1ccccc1`, with 960 µM. For `O=C(O)CN(c1ccccc1)S(=O)(=O)c1cccc([N+](=O)[O-])c1`, the IC50 stood at 1.3 µM. Then `O=C(O)CNS(=O)(=O)c1ccccc1[N+](=O)[O-]`, with 13 µM.

Molecule `O=C(O)CN(c1ccccc1)S(=O)(=O)c1ccc([N+](=O)[O-])cc1` gave an IC50 of 4.4 µM. Then `O=C(O)c1ccccc1NS(=O)(=O)c1cccc2ccccc12`, with 8.3 µM; and `Nc1ccccc1S(=O)(=O)NCC(=O)O`, with 37 µM; and `O=C(O)CN(c1ccc(F)cc1)S(=O)(=O)c1ccccc1`, with 22 µM. To `O=C(O)CN(c1ccccc1)S(=O)(=O)c1ccc2ccccc2c1` belongs 4.5 µM; to `O=C(O)[C@@H](NS(=O)(=O)c1ccc([N+](=O)[O-])cc1)c1ccccc1`, 8.6 µM.

Take `COc1ccc(S(=O)(=O)N(CC(=O)O)c2ccccc2)cc1`: the IC50 was 1.8 µM. Then `O=C(O)c1ccccc1NS(=O)(=O)c1ccc([N+](=O)[O-])cc1`, with 390 µM; and `COc1ccc(S(=O)(=O)N(C)c2ccccc2C(=O)O)cc1`, with more than 2000 µM. Take `COc1ccc(S(=O)(=O)Nc2ccccc2C(=O)O)cc1`: the IC50 was determined as 130 µM.

For the molecule `COc1ccc(N(CC(=O)O)S(=O)(=O)c2ccccc2)cc1`, half-maximal inhibition (IC50) required 38 µM. Then `O=C(O)CN(c1ccc(Cl)cc1)S(=O)(=O)c1ccccc1`, with 27 µM.

`CN(c1ccccc1C(=O)O)S(=O)(=O)c1ccc2ccccc2c1` came in with an IC50 of 400 µM. Then `O=C(O)CNS(=O)(=O)c1ccc(Cl)cc1`, with 130 µM; and `CN(c1ccccc1C(=O)O)S(=O)(=O)c1ccc([N+](=O)[O-])cc1`, with more than 2000 µM. To `O=C(O)[C@H](NS(=O)(=O)c1ccccc1)c1ccccc1` belongs 460 µM. Then `O=C(O)CN(c1ccccc1)S(=O)(=O)c1ccc(NC(=O)c2ccccc2)cc1`, with 0.38 µM. The molecule `O=C(O)CN(c1cccc([N+](=O)[O-])c1)S(=O)(=O)c1ccccc1` had an IC50 of 8.7 µM. To `O=C(O)[C@H](NS(=O)(=O)c1ccc([N+](=O)[O-])cc1)c1ccccc1` belongs 980 µM; to `Nc1cccc(S(=O)(=O)N(CC(=O)O)c2ccccc2)c1`, 27 µM. Then `Cc1ccc(S(=O)(=O)N(CC(=O)O)c2ccccc2)cc1`, with 14 µM; and `O=C(O)CN(c1ccccc1Cl)S(=O)(=O)c1ccccc1`, with 7.6 µM. To `O=C(O)c1ccccc1NS(=O)(=O)c1ccc2ccccc2c1` belongs 5.7 µM. Consider `COc1ccc(S(=O)(=O)N[C@H](C(=O)O)c2ccccc2)cc1`, for which the IC50 stood at 13 µM. With `O=C(O)[C@H](NS(=O)(=O)c1ccc(Cl)cc1)c1ccccc1`, the IC50 amounted to 340 µM. To `O=C(O)CNS(=O)(=O)c1ccccc1` belongs 130 µM. To `Nc1ccc(S(=O)(=O)N(CC(=O)O)c2ccccc2)cc1` belongs 9.3 µM; to `O=C(O)CNS(=O)(=O)c1ccc(F)cc1`, 43 µM; to `Cc1ccccc1N(CC(=O)O)S(=O)(=O)c1ccccc1`, 340 µM.

The molecule `O=C(O)C(NS(=O)(=O)c1ccc2ccccc2c1)c1ccccc1` (single isomer, unassigned; 6m) gave an IC50 of 230 µM. `O=C(O)C(NS(=O)(=O)c1ccc2ccccc2c1)c1ccccc1` (single isomer, unassigned; 6n): 2.5 µM corresponded to half-maximal inhibition (IC50). `O=C(O)[C@@H](NS(=O)(=O)c1ccccc1)c1ccccc1` had an IC50 of 11 µM. To `O=C(O)CN(c1ccccc1)S(=O)(=O)c1ccccc1` belongs 29 µM; to `Nc1ccccc1S(=O)(=O)N(CC(=O)O)c1ccccc1`, 67 µM; to `O=C(O)CN(c1cccc(Cl)c1)S(=O)(=O)c1ccccc1`, 13 µM. The molecule `Cc1ccc(N(CC(=O)O)S(=O)(=O)c2ccccc2)cc1` returned an IC50 of 26 µM. Then `COc1ccc(S(=O)(=O)N[C@@H](C(=O)O)c2ccccc2)cc1`, with 36 µM. Then `O=C(O)CNS(=O)(=O)c1ccc([N+](=O)[O-])cc1`, with 79 µM; and `Nc1ccc(N(CC(=O)O)S(=O)(=O)c2ccccc2)cc1`, with 68 µM; and `Cc1cccc(N(CC(=O)O)S(=O)(=O)c2ccccc2)c1`, with 27 µM. `Cc1ccc(S(=O)(=O)Nc2ccccc2C(=O)O)cc1` came in with an IC50 of 69 µM.

`O=C(O)CN(c1ccccc1)S(=O)(=O)c1ccc(Cl)cc1`: the IC50 was 16 µM. As for `O=C(O)c1ccccc1NS(=O)(=O)c1ccc(Br)cc1`, half-maximal inhibition (IC50) required 85 µM. Then `O=C(O)CNS(=O)(=O)c1ccc(NC(=O)c2ccccc2)cc1`, with 0.88 µM; and `O=C(O)CNS(=O)(=O)c1ccc2ccccc2c1`, with 0.4 µM.

As for `O=C(O)[C@@H](NS(=O)(=O)c1ccc(F)cc1)c1ccccc1`, the IC50 came to 25 µM.
